Results: publication PMC6014988, “Precision therapeutic targeting of human cancer cell motility” (Nature Communications, 2018)

Assays:
[1] = Three-day MTT cell growth inhibition assay, 1542NPTX; type: cell-based, human; conditions: human, 1542NPTX cells
1542NPTX = assay: as above; type: cell-based, human; conditions: Homo sapiens, 72 h, 3 days
[2] = molecular target: T1, CDC37/HSP90β heterocomplex (Homo sapiens, UniProt P08238+Q16543); assay: DARTS assay with CDC37 and HSP90β combined; type: binding
T1 construct: made in house; host or cells: E. coli (Rosetta BL-21 for HSP90β, BL-21 DE-3 for CDC37)
T1 sequence (P08238 whole entry): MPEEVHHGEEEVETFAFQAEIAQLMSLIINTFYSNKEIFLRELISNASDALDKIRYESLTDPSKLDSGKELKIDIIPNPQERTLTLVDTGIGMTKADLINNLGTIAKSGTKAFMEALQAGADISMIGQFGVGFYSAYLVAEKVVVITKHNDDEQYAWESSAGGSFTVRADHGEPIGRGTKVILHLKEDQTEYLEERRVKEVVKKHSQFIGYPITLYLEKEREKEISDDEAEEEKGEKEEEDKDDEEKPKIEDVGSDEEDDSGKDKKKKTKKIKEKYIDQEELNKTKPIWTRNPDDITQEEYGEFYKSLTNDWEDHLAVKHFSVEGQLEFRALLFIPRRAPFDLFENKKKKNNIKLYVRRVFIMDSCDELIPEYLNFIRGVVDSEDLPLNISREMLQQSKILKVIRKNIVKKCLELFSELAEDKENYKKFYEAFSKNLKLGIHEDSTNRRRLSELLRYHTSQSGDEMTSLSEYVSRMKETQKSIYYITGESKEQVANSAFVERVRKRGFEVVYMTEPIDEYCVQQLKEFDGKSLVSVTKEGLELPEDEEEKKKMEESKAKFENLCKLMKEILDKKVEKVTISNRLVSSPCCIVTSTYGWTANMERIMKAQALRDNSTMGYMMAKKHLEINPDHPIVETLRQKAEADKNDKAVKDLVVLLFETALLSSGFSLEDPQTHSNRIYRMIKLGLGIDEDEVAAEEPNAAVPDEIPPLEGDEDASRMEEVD
T1 sequence (Q16543 whole entry): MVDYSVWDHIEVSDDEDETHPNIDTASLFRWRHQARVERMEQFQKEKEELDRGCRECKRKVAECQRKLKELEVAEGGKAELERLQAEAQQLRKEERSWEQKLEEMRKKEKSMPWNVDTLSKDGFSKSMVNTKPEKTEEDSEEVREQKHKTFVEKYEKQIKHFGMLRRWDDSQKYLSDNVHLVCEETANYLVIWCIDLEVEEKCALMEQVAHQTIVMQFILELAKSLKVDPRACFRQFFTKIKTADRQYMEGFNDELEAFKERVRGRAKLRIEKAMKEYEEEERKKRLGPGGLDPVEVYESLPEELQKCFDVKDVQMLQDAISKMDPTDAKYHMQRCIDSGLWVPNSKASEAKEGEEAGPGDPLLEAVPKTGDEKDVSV
Description: Fig. 5 KBU2046 stabilizes CDC37/HSP90β heterocomplexes. a KBU2046 stabilizes HSP90β/CDC37 heterocomplexes in a DARTS assay. Equimolar amounts of HSP90β and CDC37 protein were pre-incubated with KBU2046, and resultant thermolysin reaction products were detected by silver stain following SDS-PAGE. […] Atoms within 5 angstroms of KBU2046 are colored by element (carbon, green; nitrogen, blue; oxygen, red). d Potential surface of the whole CDC37/HSP90β dimer (color code: green—HSP90β; gray—CDC37; cyan—Arg167 from CDC37 bisecting the larger pocket and creating a new cleft into which KBU2046 binds)
(§1) Fluorescent thermal shift, isothermal titration calorimetry, and biolayer interferometry assays[46] were all performed as described by us using MEK4EE (37-399, S257E, T261E) cloned into pMCSG7 and KRX Competent E. coli cells (Promega Inc.) and above denoted full-length HSP90B and CDC37 vectors and Rosetta BL-21 and BL-21 DE-3 competent E. coli cells, respectively. DARTS assays were conducted as described, using equimolar amounts of CDC37 and HSP90β, thermolysin digestion, and silver stain visualization (ProteoSilver Silver Stain Kit, Sigma-Aldrich).

CDC37 = molecular target: T2, CDC37 (Homo sapiens, UniProt Q16543); assay: Biophysical binding assays and DARTS, isolated CDC37; conditions: ITC, thermal shift, biolayer interferometry, dynamic light scattering, DARTS
T2 construct: made in house; host or cells: BL-21 DE-3 E. coli
T2 sequence (Q16543 whole entry): as above
Description: as §1
Supplementary Figure 14. […] Studies used purified […]
recombinant HSP90β or CDC37. Fluorescent thermal shift 5, isothermal titration calorimetry 6, […]
evidence of KBU2046 binding to either HSP90β or CDC37 (data not shown). For DARTS assay, HSP90β or CDC37 were individually pre-incubated with KBU2046, thermolysin added, and reaction products were separated by SDS PAGE and visualized by silver stain (depicted above).
NTco – no thermolysin control. However, when the DARTS assay was conducted with both HSP90β and CDC37 present, KBU2046 protected both proteins from degradation in a concentration-dependent manner (see manuscript Fig 5A).
(also on this page, place not known: HSP90 Ntco 0 0.001 0.01 0.1 1.0 10 µM KBU2046, thermolysin NTco thermolysin CDC37)
(1 picture or pasted object on this page, not shown here)

[3] = molecular target: T3, Isovaleryl-CoA dehydrogenase (Homo sapiens, UniProt P26440); assay: ProtoArray binding, Isovaleryl-CoA dehydrogenase; conditions: 10 fold excess free KBU2046
T3 construct: purchased Invitrogen
T3 sequence (P26440 33-426): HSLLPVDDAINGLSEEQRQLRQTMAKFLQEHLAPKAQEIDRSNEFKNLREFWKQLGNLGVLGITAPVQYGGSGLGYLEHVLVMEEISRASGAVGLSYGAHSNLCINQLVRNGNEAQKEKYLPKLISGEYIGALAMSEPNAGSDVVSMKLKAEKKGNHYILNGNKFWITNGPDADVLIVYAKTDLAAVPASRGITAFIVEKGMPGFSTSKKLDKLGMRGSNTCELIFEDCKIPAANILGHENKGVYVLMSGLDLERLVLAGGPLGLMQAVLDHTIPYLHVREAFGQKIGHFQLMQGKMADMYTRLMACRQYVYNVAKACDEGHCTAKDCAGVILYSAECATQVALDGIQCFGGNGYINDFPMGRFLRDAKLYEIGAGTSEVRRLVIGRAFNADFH
Description: (§2) The ProtoArray® assay, using the Human Protein Microarray platform, was performed by Invitrogen. […]
(§3) followed by detection with FITC-streptavidin, and visualization by fluorescent microscopy (with equal exposure times). (d) Protein array hybridization. KBU2046-biotin was hybridized to ProtoArray® Human Protein Microarray’s at 0.5 and 10 µM with and without 10 fold excess free KBU2046. We first sought proteins that met the following criteria, and did so at both 0.5 and 10 µM concentrations of KBU2046-biotin (in the absence of free KBU2046): Z-Score greater than 2.5, Z-Factor greater than 0.5, CI P-value less than 0.05, negative control value <2,000 (relative fluorescence units; RFUs), and a signal/negative control signal of >10 and >5 for 10 µM and 0.5 µM conditions, respectively. This yielded 3 proteins, shown in table, for an initial hit rate of 0.03%. We then required free KBU2046 to inhibit binding by >75%. Of the two remaining candidates, we eliminated isovaleryl-CoA dehydrogenase (ICD). Its binding signal doubled on […]
(§4) suspected non-specific binding by the biotin-linker moiety. We deemed cysteine and glycine-rich protein 1 (CSRP1) our top priority protein, though its binding characteristics at 10 µM + free KBU2046 were similar to ICD, albeit not as extreme. We thus evaluated whether KBU2046- […]
(§5) There were two additional notable findings from protein array studies. […]

[4] = molecular target: T4, cysteine and glycine-rich protein 1 (Homo sapiens, UniProt P21291); assay: ProtoArray binding, cysteine and glycine-rich protein 1; conditions: 10 fold excess free KBU2046
T4 construct: purchased Invitrogen
T4 sequence (P21291 whole entry): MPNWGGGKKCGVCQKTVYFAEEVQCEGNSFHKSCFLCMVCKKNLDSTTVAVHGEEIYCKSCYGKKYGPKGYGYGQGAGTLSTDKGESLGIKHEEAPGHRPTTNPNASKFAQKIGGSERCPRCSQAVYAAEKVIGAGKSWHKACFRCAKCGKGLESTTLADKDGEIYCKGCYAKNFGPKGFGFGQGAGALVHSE
Description: as §2, §3, §4, §5

442 kinases = assay: KINOMEscan assay; type: binding; conditions: 10 µM; negatives include MKK4, p38 MAPK, RAF1
Description: Initial assays were performed with PC3 and PC3-M cells (PC3 cell data not shown). However, as these studies yielded similar findings, subsequent screening assays utilized only PC3-M cells. In designing chemical synthetic routes, priority was given to efficacy and toxicity parameters. Additional design features were also included in our chemical […]
toxicity parameters. These additional design features included removal of fragments that mediated genistein binding to the estrogen receptor (ER), as determined by ER-genistein 3D x-ray crystal structures (Protein Data Base IDs:1X7R and 1X7J, for crystal structures of ERα and ERβ with bound genistein, respectively). These features also included removal of chemical fragments that are considered to increase susceptibility to rapid metabolism, especially that by the cytochrome P450 (CYP) pathway. The final feature involved incorporation of chemical characteristics previously shown to be associated with effective drugs and which together generally impart more favorable pharmacologic properties, including those described by Lipinski […]
Supplementary Note 2. […] Three […]
different assays systems were employed.
Kinase assay system #1. The KINOMEscan™ assay (Ambit Biosciences). This assay evaluates 442 kinases, including 400 distinct parental kinases plus mutants known to alter activity or responsiveness. […]

## O=C1c2ccccc2OCC1c1ccc(F)cc1 (racemic) [KBU2046, (±)-3(4-fluorophenyl)chroman-4-one]
[1]
  viability at 3 days, 50 µM: 107%
1542NPTX
  IC20: > 50 µM
  IC50: > 50 µM
[2]; CDC37 band increased, HSP90β degradation product decreased
  concentration at which effects were evident: 10 nM
[2]; equimolar HSP90β and CDC37
  protection from thermolysin digestion: protected both proteins from digestion
CDC37
  binding to CDC37: no evidence of KBU2046 binding
[3]; 0.5 uM KBU2046-biotin
  % inhibition by competitor: 80%
[3]; 10 uM KBU2046-biotin
  % inhibition by competitor: 12%
[4]; 0.5 uM KBU2046-biotin
  % inhibition by competitor: 79%
[4]; 10 uM KBU2046-biotin
  % inhibition by competitor: 33%
442 kinases
  inhibition of kinase binding to immobilized substrate: completely negative
